# Data from patent EP0046377A1, “Cycloalkenylcarboxamido derivatives of tetramisole, their preparation and use in medicine” (BEECHAM GROUP PLC, priority 1980, dated 1982).
# Where a name gives a salt, the structure may show the parent alone.
# Experiments:
# Assay type in all cases: in vivo
# Nematospiroides dubius = assay: Oral administration to mice infected with Nematospiroides dubius; % reduction in worm numbers versus untreated infected controls; details: % reduction in numbers of worms vs untreated infected controls; for inhibition in vivo at 5 mg/kg / inhibition in vivo at 50 mg/kg: Heligmosomoides polygyrus
# Experimental: The compounds of Examples 1 to 15 were each administered orally to mice infected with Nematospiroides dubius at various dosages. Activity was calculated as % reduction in the numbers of worms in treated as opposed to control (untreated, infected) animals.
# Fluke = assay: Test to demonstrate fluke activity in an artificially infected sheep; details: sheep infected with 100 metacercariae, treated orally at 30 mg/kg 4-5 months later
# Experimental: A sheep was artificially infected with 100 metacercariae and 4 - 5 months later was treated, orally, with 6-[3-(3-cyclohexen-1-ylcarboxamido)-phenyl7-2,3,5,6-tetrahydroimidazo [2,1-b]thiazole at 30 mg/kg.
# Sheep Roundworms = assay: Activity against sheep roundworms (mixed roundworm infection)
# Experimental: (§1) A single subcutaneous injection of 5 mg/kg of the laevo amide of Example 12a, as a solution of its hydrochloride (in a mixture of propylene glycol, 70%; benzyl alcohol, 4%; and made up to 100% with water), to a sheep with a mixed roundworm infection, removed >99.9% of all worms present and was 100% active against lungworm.
# hookworm = assay: Activity against dog parasites: hookworm; details: single oral dose of 7.5 mg/kg
# Experimental: (§2) A single oral dose of 7.5 mg/kg of the laevo amide of Example 12a to a dog was 100% effective against ascarids, hookworm and whipworm.
# lungworm = assay: Activity against lungworm in a sheep with mixed roundworm infection; details: single subcutaneous injection of 5 mg/kg, solution of hydrochloride
# Experimental: as §1
# adult Brugia pahangi = assay: Activity against Brugia pahangi in the cat (macrofilaricidal activity); details: five daily doses at 5 mg/kg s.c.
# Experimental: Five daily doses of the laevo amide of Example 12a administered at 5 mg/kg s.c. to a cat infected with adult Brugia pahangi was 100% effective against this parasite.
# whipworm = assay: Activity against dog parasites: whipworm; details: single oral dose of 7.5 mg/kg
# Experimental: as §2
# ascarids = assay: Activity against dog parasites: ascarids; details: single oral dose of 7.5 mg/kg
# Experimental: as §2
Structure (SMILES),inhibition in vivo at 5 mg/kg (Nematospiroides dubius; Dose 5 mg/kg),inhibition in vivo at 50 mg/kg (Nematospiroides dubius; Dose 50 mg/kg),further results
O=C(Nc1cccc(C2CN3C=CSC3=N2)c1)C1CC=CCC1 (stereo not shown) [Example 15],71%,100%,
O=C(Nc1cccc(C2CN3CCSC3=N2)c1)C1C=CCCC1 (stereo not shown) [Example 5],65%,100%,
O=C(Nc1cccc(C2CN3CCSC3=N2)c1)C1CC=CCC1 (racemic) [Example 1],55%,99%,"activity (post-mortem fluke worm counts) (Fluke): > 95%; Fluke egg counts (Fluke; 3-4 days after dosing): zero; removal of roundworms (Sheep Roundworms; single oral dose of 15 mg/kg, aqueous solution of hydrochloride salt): removed all roundworms present"
"O=C(Nc1cccc(C2CN3CCSC3=N2)c1)C1CC=CCC1 (stereo not drawn) [Example 14a, 6-[3-(3-cyclohexen-1-ylcarboxamido)phenyl] -2,3,5,6-tetrahydroimidazo[2,l-b]thiazole]",,,"Activity % (Nematospiroides dubius; Dose 2.5 mg/kg): 100%; Activity % (Nematospiroides dubius; Dose 10 mg/kg): 100%; effective against hookworm (hookworm): 100%; active against lungworm (lungworm): 100%; effective against Brugia pahangi (adult Brugia pahangi): 100%; effective against whipworm (whipworm): 100%; effective against ascarids (ascarids): 100%; worms removed (Sheep Roundworms; single subcutaneous injection of 5 mg/kg, solution of hydrochloride in propylene glycol 70%/benzyl alcohol 4%/water): > 99.9%"
"O=C(Nc1cccc(C2CN3CCSC3=N2)c1)C1C=CCC1 (stereo not shown) [Example 4, 6-[3-(2-cyclopenten-1-ylcarboxamido)phenyl]-2,3,5,6-tetrahydroimidazo[2,1-b]thiazole]",100%,100%,
O=C(Nc1cccc(C2CN3CCSC3=N2)c1)C1=CC2(CC=CCC2)CC=C1 (stereo not shown) [Example 12],19%,94%,
O=C(Nc1cccc(C2CN3CCSC3=N2)c1)C1=CCCCC1 (stereo not shown) [Example 9],76%,99%,
O=C(Nc1cccc(C2CN3CCSC3=N2)c1)C1CC=CC1 (stereo not shown) [Example 11],84%,100%,
O=C(Nc1cccc(C2CN3CCSC3=N2)c1)C1=CCC=CC1 (stereo not shown) [Example 3],,,Activity % (Nematospiroides dubius; Dose 5 mg/kg): 58%; Activity % (Nematospiroides dubius; Dose 50 mg/kg): 100%
"CC1(C)C=C(C(=O)Nc2cccc(C3CN4CCSC4=N3)c2)C=CC1 (stereo not shown) [Example 2, 6-[3-(3,3-dimethyl-1,5-cyclohexadien-1-ylcarboxamido)phenyl]-2,3,5,6-tetrahydroimidazo[-2,1-b]thiazole hydrochloride]",57%,99%,
CC1C=CCCC1C(=O)Nc1cccc(C2CN3CCSC3=N2)c1 (stereo not shown) [Example 7],55%,100%,
CC1C=CCC(C(=O)Nc2cccc(C3CN4CCSC4=N3)c2)C1 (stereo not shown) [Example 8],59%,99%,
O=C(Nc1cccc(C2CN3CCSC3=N2)c1)C1=CCCCCC1 (stereo not shown) [Example 10],90%,100%,
O=C(Nc1cccc(C2CN3CCSC3=N2)c1)C1=CC2(CC=C1)CCCC2 (stereo not shown) [Example 6],45%,100%,
